In patent publication US6727264B1 (Synaptic Pharmaceutical Corporation, priority 2001, dated 2004) one finds Ki data, which are given here for 62 compounds.

Like-named read-outs stand apart in the source and are kept apart here.

For orientation: Ki means a measure of affinity in units of concentration, obtained from inhibition or displacement.

The target in this test is rat MCH-1 (Rattus norvegicus, UniProt P97639). In words: Radioligand binding assay at cloned rat MCH1 receptor ([3H] Compound A). The following applies: cloned rat MCH1 receptor, 0.08 nM [3H] Compound A, read-out: Ki (nM) rMCH1. Further details: host or cells: Peak rapid 293 (Peakr293) cells, transient calcium phosphate transfection, membranes.
Chain of rat MCH-1 (P97639 whole entry): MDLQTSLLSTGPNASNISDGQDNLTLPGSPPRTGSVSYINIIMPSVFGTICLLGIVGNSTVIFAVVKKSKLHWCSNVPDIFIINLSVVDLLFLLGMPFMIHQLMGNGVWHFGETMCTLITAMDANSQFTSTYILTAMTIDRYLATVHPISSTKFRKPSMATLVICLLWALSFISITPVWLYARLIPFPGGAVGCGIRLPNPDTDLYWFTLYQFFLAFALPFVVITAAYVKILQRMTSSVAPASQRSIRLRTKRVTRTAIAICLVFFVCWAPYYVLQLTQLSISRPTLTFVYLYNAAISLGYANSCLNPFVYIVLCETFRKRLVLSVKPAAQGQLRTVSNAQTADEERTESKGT

For `CCC(=O)Nc1cccc(C2CCN(CCCC(=O)c3ccc(Br)cc3)CC2)c1` [Example 533], the Ki (Peakr293 cell membranes) was determined as 10.6 nM.

For the compound `CC(C)C(=O)Nc1cccc(C2CCN(Cc3cccc(Oc4ccccc4)c3)CC2)c1` [Example 205], under “membranes from Peakr293 cells”, the Ki stood at 28 nM.

As to `CC(C)C(=O)Nc1cccc(C2CCN(CC[C@H](NC(=O)Nc3ccccc3F)c3ccccc3)CC2)c1` [Example 607], the Ki (Peakr293 cell membranes) was 142 nM.

In the case of `O=C(CCCCN1CCC(c2cccc(NC(=O)C3CC3)c2)CC1)c1cccc([N+](=O)[O-])c1` [Example 553], the Ki (Peakr293 cell membranes) came out at 27.5 nM.

Turning to `CCOC(=O)c1cc(-c2ccc(Cl)cc2)oc1CN1CCC(c2cccc(NC(=O)C(C)C)c2)CC1` [Example 222, ETHYL 5-(4-CHLOROPHENYL)-2-({4-[3-(ISOBUTYRYLAMINO)PHENYL]-1-PIPERIDINYL}METHYL)-3-FUROATE], the Ki (membranes from Peakr293 cells) amounted to 152 nM.

For the compound `Cc1ccc(-n2cc(CN3CCC(c4ccc(NC(=O)C(C)C)cc4)CC3)c3ccccc32)cc1` [Example 422], the Ki (Peakr293 cell membranes) was determined as 173 nM.

On to `COc1ccc2[nH]c(-c3cccc(Cl)c3)c(CCCN3CCC(c4cccc(NC(=O)C(C)C)c4)CC3)c2c1` [Example 726], for which the Ki (Peakr293 cell membranes) was 5 nM.

`CCC(=O)Nc1cccc(C2CCN(Cc3cn(-c4ccccc4Cl)c4ccccc34)CC2)c1` [Example 461]: the Ki (Peakr293 cell membranes) was 35.6 nM.

On to `CC(C)C(=O)Nc1cccc(C2CCN(C[C@@H](C)COc3ccccc3Cl)CC2)c1` [Example 368], for which the Ki (membranes from Peakr293 cells) came to 313 nM.

As to `CC(C)C(=O)Nc1cccc(C2CCN(CCCc3c(-c4ccc(F)cc4)[nH]c4ccc(OC(F)(F)F)cc34)CC2)c1` [Example 715], the Ki (Peakr293 cell membranes) worked out at 4.2 nM.

With `Cc1onc(-c2c(Cl)cccc2Cl)c1C(=O)O[C@@H](CCN1CCC(c2cccc(NC(=O)C(C)C)c2)CC1)c1ccccc1` [Example 290, (1S)-3-{4-[3-(ISOBUTYRYLAMINO)PHENYL]-1-PIPERIDINYL}-1-PHENYLPROPYL 3-(2,6-DICHLOROPHENYL)-5-METHYL-4-ISOXAZOLECARBOXYLATE], the Ki (membranes from Peakr293 cells) was 51.9 nM.

With `CC(C)C(=O)Nc1cccc(C2CCN(Cc3cn(-c4cccc(C(F)(F)F)c4)c4ccccc34)CC2)c1` [Example 442], the Ki (Peakr293 cell membranes) was found to be 7.8 nM.

Turning to `COC(=O)c1ccc(-n2ccc3c(CN4CCC(c5cccc(NC(=O)C(C)C)c5)CC4)cccc32)cc1` [Example 834, METHYL 4-[4-({4-[3-(ISOBUTYRYLAMINO)PHENYL]-1-PIPERIDINYL)METHYL)-1H-INDOL-1-YL]BENZOATE], the Ki (Peakr293 cell membranes) turned out to be 38.3 nM.

Consider `Cc1ccc(-n2ccc3cc(CN4CCC(c5cccc(NC(=O)C(C)C)c5)CC4)ccc32)cc1` [Example 848], for which the Ki (Peakr293 cell membranes) was found to be 19.1 nM.

For the compound `CC(C)C(=O)Nc1cccc(C2CCN(CCCCCC(O)c3cccc(F)c3)CC2)c1` (centres unmarked) [Example 813], the inhibitory constant (Ki) (Peakr293 cell membranes) worked out at 57.3 nM.

For the compound `COc1cccc2c(CCCCN3CCC(c4cccc(NC(=O)C(C)C)c4)CC3)c(-c3ccccc3)[nH]c12` [Example 406], for the setting “Peakr293 cell membranes”, the Ki came to 12.3 nM.

Regarding `CCCc1c(C(=O)NCCCCCCN2CCC(c3cccc(NC(=O)C(C)C)c3)CC2)cnn1-c1ccccc1` [Example 633], the Ki (Peakr293 cell membranes) was found to be 108 nM.

For `Cc1cccc2c(CCCN3CCC(c4cccc(NC(=O)C(C)C)c4)CC3)c(-c3ccc(Br)cc3)[nH]c12` [Example 753], for the setting “Peakr293 cell membranes”, the Ki is 16.6 nM.

Consider `COc1cccc2c(CN3CCC(c4cccc(NC(=O)C(C)C)c4)CC3)c[nH]c12` [Example 510], for which the Ki (Peakr293 cell membranes) is 305 nM.

`CCn1c2ccccc2c2cc(CN3CCC(c4cccc(N5CCCC5=O)c4)CC3)ccc21` [Example 824]: the Ki (Peakr293 cell membranes) amounted to 36.5 nM.

In the case of `Cc1ccc(C(=O)CCN2CCC(c3cccc(NC(=O)C(C)C)c3)CC2)cc1` [Example 122], the inhibitory constant (Ki) (membranes from Peakr293 cells) stood at 85.1 nM.

On to `CC(C)C(=O)Nc1cccc(C2CCN(CCC(Oc3ccccc3)c3ccc(Br)cc3)CC2)c1` (centres unmarked) [Example 151], for which the Ki (membranes from Peakr293 cells) was found to be 14.2 nM.

Take `CC(C)C(=O)Nc1cccc(C2CCN(CCCCCCC(O)c3ccccc3F)CC2)c1` (centres unmarked) [Example 812]: the Ki (Peakr293 cell membranes) turned out to be 245 nM.

With `CC(C)C(=O)Nc1cccc(C2CCN(Cc3cccc4c3ccn4-c3ccc(Cl)c(Cl)c3)CC2)c1` [Example 864], the Ki (Peakr293 cell membranes) was found to be 292 nM.

Consider `CC(C)C(=O)Nc1cccc(C2CCN(CCCCC(Oc3cc(C(F)(F)F)ccc3F)c3ccccc3F)CC2)c1` (centres unmarked) [Example 931], for which the inhibitory constant (Ki) (Peakr293 cell membranes) came out at 9.6 nM.

For the compound `CC(C)C(=O)Nc1cccc(C2CCN(Cc3c[nH]c4ccc(F)cc34)CC2)c1` [Example 454], the Ki (Peakr293 cell membranes) was found to be 772 nM.

On to `CC(C)C(=O)Nc1cccc(C2CCN(CCCc3c(-c4cccc(F)c4)[nH]c4ccccc34)CC2)c1` [Example 704], for which the Ki (Peakr293 cell membranes) is 1.2 nM.

Turning to `Cc1cccc2c(CCCCN3CCC(c4cccc(NC(=O)C(C)C)c4)CC3)c(-c3ccccc3)[nH]c12` [Example 403], the Ki (Peakr293 cell membranes) was 11.7 nM.

As to `Cc1onc(-c2ccccc2Cl)c1C(=O)NCCCCCN1CCC(c2cccc(NC(=O)C(C)C)c2)CC1` [Example 681], for the setting “Peakr293 cell membranes”, the Ki came to 23.9 nM.

For the compound `CC(C)C(=O)Nc1cccc(C2CCN(CCCc3c(-c4ccccc4Br)n(C)c4ccccc34)CC2)c1` [Example 794], the inhibition constant (Ki) (Peakr293 cell membranes) came to 4.9 nM.

Turning to `CC(C)C(=O)Nc1cccc(C2CCN(CCCC(=O)c3cccs3)CC2)c1` [Example 948], the Ki (Peakr293 cell membranes) was found to be 21.2 nM.

With `CC(C)C(=O)Nc1cccc(C2CCN(CC[C@H](NS(C)(=O)=O)c3ccccc3)CC2)c1` [Example 597], the Ki (Peakr293 cell membranes) was 223 nM.

Take `CC(C)C(=O)Nc1cccc(C2CCN(C[C@H](Oc3ccc(F)cc3)c3ccccc3)CC2)c1` [Example 337]: where the note is “membranes from Peakr293 cells”, the Ki was determined as 907 nM.

Consider `CC(C)C(=O)Nc1ccc(C2CCN(CCCCCCn3ccc4ccccc43)CC2)cc1` [Example 831], for which, under “Peakr293 cell membranes”, the Ki is 570 nM.

As to `Cc1ccc2[nH]c(-c3cccc([N+](=O)[O-])c3)c(CCCN3CCC(c4cccc(NC(=O)C(C)C)c4)CC3)c2c1` [Example 769], the Ki (Peakr293 cell membranes) was found to be 12.4 nM.

Turning to `Cc1onc(-c2ccccc2)c1C(=O)NCCCN1CCC(c2cccc(NC(=O)C(C)C)c2)CC1` [Example 325], the Ki (membranes from Peakr293 cells) was 29.8 nM.

For `CC(C)C(=O)Nc1cccc(C2CCN(CC[C@H](NS(=O)(=O)c3ccc(F)c(F)c3)c3ccccc3)CC2)c1` [Example 592], the Ki (Peakr293 cell membranes) worked out at 186 nM.

`CC(C)C(=O)Nc1cccc(C2CCN(CCCc3c(-c4ccccc4I)[nH]c4ccccc34)CC2)c1` [Example 790]: the Ki (Peakr293 cell membranes) turned out to be 4.4 nM.

On to `CC(C)C(=O)Nc1cccc(C2CCN(CCCCCC(=O)c3ccccc3)CC2)c1` [Example 529], for which the Ki (Peakr293 cell membranes) came to 42.4 nM.

Regarding `CC(C)C(=O)Nc1cccc(C2CCN(CCCNC(=O)N3C(=O)OC[C@H]3c3ccc(F)c(F)c3)CC2)c1` [Example 573], for the setting “Peakr293 cell membranes”, the Ki is 114 nM.

`CC(C)C(=O)Nc1cccc(C2CCN(CCC(Oc3ccc(F)c(F)c3)c3ccc(Cl)cc3)CC2)c1` (centres unmarked) [Example 125]: where the note is “membranes from Peakr293 cells”, the Ki was 5.4 nM.

On to `CC(C)C(=O)Nc1cccc(C2CCN(CCC(Oc3cccc(F)c3)c3ccc(F)cc3)CC2)c1` (centres unmarked) [Example 140], for which the Ki (membranes from Peakr293 cells) came out at 27.4 nM.

For the compound `CC(C)C(=O)Nc1cccc(C2CCN(CCC(Oc3ccc(Br)cc3)c3ccc(Cl)cc3)CC2)c1` (centres unmarked) [Example 171], the Ki (membranes from Peakr293 cells) stood at 3.7 nM.

Consider `CC(C)C(=O)Nc1cccc(C2CCN(CCCNC(=O)Nc3ccc(Cl)c(Cl)c3)CC2)c1` [Example 614], for which, under “Peakr293 cell membranes”, the inhibitory constant (Ki) is 84.8 nM.

For the compound `COc1ccc2c(CN3CCC(c4cccc(NC(=O)C(C)C)c4)CC3)c[nH]c2c1` [Example 497], the Ki (Peakr293 cell membranes) was found to be 97.7 nM.

In the case of `CC(C)C(=O)Nc1cccc(C2CCN(CCCCC(Oc3ccc(Br)cc3)c3ccc(Cl)cc3)CC2)c1` (centres unmarked) [Example 936], the Ki (Peakr293 cell membranes) is 11.6 nM.

Consider `CC(C)C(=O)Nc1cccc(C2CCN(Cc3ccc(-c4ccccn4)s3)CC2)c1` [Example 225], for which the Ki (membranes from Peakr293 cells) is 214 nM.

On to `Cc1cccc2c(CCCN3CCC(c4cccc(NC(=O)C(C)C)c4)CC3)c(-c3cccc(F)c3)[nH]c12` [Example 690], for which the inhibition constant (Ki) (Peakr293 cell membranes) was found to be 5.2 nM.

For the compound `CC(C)C(=O)Nc1cccc(C2CCN(Cc3cn(-c4ccc(Cl)cc4)c4cc(Cl)ccc34)CC2)c1` [Example 477], the inhibition constant (Ki) (Peakr293 cell membranes) was determined as 14.9 nM.

As to `COc1ccc(S(=O)(=O)NCCCN2CCC(c3cccc(NC(=O)C(C)C)c3)CC2)cc1OC` [Example 637], the Ki (Peakr293 cell membranes) was 106 nM.

For the compound `CC(C)C(=O)Nc1cccc(C2CCN(CCCCC(O)c3ccc(F)cc3)CC2)c1` (centres unmarked) [Example 811], the Ki (Peakr293 cell membranes) was 191 nM.

Consider `COc1ccc(OC(CCN2CCC(c3cccc(NC(=O)C(C)C)c3)CC2)c2ccc(OC)cc2)cc1` (centres unmarked) [Example 167], for which the Ki (membranes from Peakr293 cells) is 80.4 nM.

As to `CC(C)C(=O)Nc1cccc(C2CCN(Cc3cccc(Oc4ccc(C(C)(C)C)cc4)c3)CC2)c1` [Example 213], where the note is “membranes from Peakr293 cells”, the Ki was 519 nM.

As to `CC(C)C(=O)Nc1cccc(C2CCN(CCCc3c(-c4cccc(Br)c4)n(-c4ccccc4)c4ccccc34)CC2)c1` [Example 757], where the note is “Peakr293 cell membranes”, the Ki is 6.9 nM.

Turning to `CC(C)C(=O)Nc1cccc(C2CCN(CCCc3c(-c4ccccc4Cl)[nH]c4c3ccc3ccccc34)CC2)c1` [Example 732], for the setting “Peakr293 cell membranes”, the Ki came to 5.8 nM.

Turning to `CC(C)C(=O)Nc1cccc(C2CCN(CCCCCCN)CC2)c1` [Example 646], the inhibition constant (Ki) (Peakr293 cell membranes) came out at 236 nM.

In the case of `CC(C)C(=O)Nc1cccc(C2CCN(Cc3cn(-c4ccc([N+](=O)[O-])cc4)c4ccccc34)CC2)c1` [Example 438], the Ki (Peakr293 cell membranes) worked out at 1.3 nM.

For `CCC(=O)Nc1cccc(C2CCN(Cc3ccc4c(c3)c3ccccc3n4CC)CC2)c1` [Example 821], the Ki (Peakr293 cell membranes) is 12.1 nM.

As to `CC(C)C(=O)Nc1cccc(C2CCN(CCCc3c(-c4ccc([N+](=O)[O-])cc4)[nH]c4c3ccc3ccccc34)CC2)c1` [Example 777], the Ki (Peakr293 cell membranes) came out at 8.5 nM.

With `CC(C)C(=O)Nc1cccc(C2CCN(CCCc3c(-c4ccc(C(F)(F)F)cc4)n(-c4ccccc4)c4ccccc34)CC2)c1` [Example 685], the Ki (Peakr293 cell membranes) was 82.4 nM.

In the case of `CC(C)C(=O)Nc1cccc(C2CCN(CCC[S+]([O-])c3ccc(F)cc3)CC2)c1` (centres unmarked) [Example 590], where the note is “Peakr293 cell membranes”, the Ki is 157 nM.

As for `CCOC(=O)c1[nH]c2ccc(OC)cc2c1CN1CCC(c2cccc(NC(=O)C(C)C)c2)CC1` [Example 453, ETHYL 3-({4-[3-(ISOBUTYRYLAMINO)PHENYL]-1-PIPERIDINYL}METHYL)-5-METHOXY-1H-INDOLE-2-CARBOXYLATE], for the setting “Peakr293 cell membranes”, the inhibition constant Ki is 195 nM.
